Measurements from patent US20070072897A1, “Phenylaminopropanol derivatives and methods of their use” (Wyeth, priority 2005, published 2007).
Structures can show the parent of a compound that is named as a salt.

What was measured:
human hNET = target: T1, human hNET (Homo sapiens, UniProt P23975); experiment: Norepinephrine (NE) uptake assay in MDCK-Net6 cells; format: cell-based; details: [3H]NE uptake; for EC50: MDCK-Net6 cells stably transfected with hNET; for inhibition at 1 µM: MDCK-Net6 cells, read-out: hNET Percentage inhibition at 1 μM
T1 construct: expressed in transfected cells; host or cells: MDCK (MDCK-Net6)
T1 sequence (P23975 whole entry): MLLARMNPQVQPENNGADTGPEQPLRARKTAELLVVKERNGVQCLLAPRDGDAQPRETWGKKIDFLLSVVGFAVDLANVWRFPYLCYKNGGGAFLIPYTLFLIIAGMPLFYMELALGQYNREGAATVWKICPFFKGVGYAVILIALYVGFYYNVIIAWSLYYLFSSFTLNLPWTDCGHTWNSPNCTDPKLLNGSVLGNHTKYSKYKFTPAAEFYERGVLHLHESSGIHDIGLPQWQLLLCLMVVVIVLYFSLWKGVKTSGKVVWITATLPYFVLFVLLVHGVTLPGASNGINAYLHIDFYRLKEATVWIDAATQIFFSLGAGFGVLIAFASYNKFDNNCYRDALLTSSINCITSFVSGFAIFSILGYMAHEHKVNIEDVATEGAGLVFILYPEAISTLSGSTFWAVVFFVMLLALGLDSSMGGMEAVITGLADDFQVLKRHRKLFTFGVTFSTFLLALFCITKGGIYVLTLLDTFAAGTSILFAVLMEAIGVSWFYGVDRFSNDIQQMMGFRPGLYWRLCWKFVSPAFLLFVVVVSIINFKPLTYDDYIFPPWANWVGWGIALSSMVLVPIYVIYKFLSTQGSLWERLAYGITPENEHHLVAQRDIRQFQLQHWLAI
Description: Cells were plated at 300,000/T75 flask and cells were split twice weekly. […] Cells were plated at 250,000 cells/T75 flask and split twice weekly.
Norepinephrine (NE) Uptake Assay
On day 1, cells were plated at 3,000 cells/well in growth medium and maintained in a cell incubator (37° C., 5% CO2). On day 2, growth medium was replaced with 200 μl of assay buffer (25 mM HEPES; 120 mM NaCl; 5 mM KCl; 2.5 mM CaCl2; 1.2 mM MgSO4; 2 mg/ml glucose (pH 7.4, 37° C.)) containing 0.2 mg/ml ascorbic acid and 10 μM pargyline. Plates containing cells with 200 μl of assay buffer were equilibrated for 10 minutes at 37° C. prior to addition of compounds. A stock solution of desipramine was prepared in DMSO (10 mM) and delivered to triplicate wells containing cells for a final test concentration of 1 μM. Data from these wells were used to define non-specific NE uptake (minimum NE uptake). Test compounds were prepared in DMSO (10 mM) and diluted in assay buffer according to test range (1 to 10,000 nM). Twenty-five microliters of assay buffer (maximum NE uptake) or test compound were added directly to triplicate wells containing cells in 200 μl of assay buffer. The cells in assay buffer with test compounds were incubated for 20 minutes at 37° C. […] The reaction was terminated by decanting the supernatant from the plate. The plates containing cells were washed twice with 200 μl assay buffer (37° C.) to remove free radioligand. The plates were then inverted, left to dry for 2 minutes, then reinverted and air-dried for an additional 10 minutes. […] After cell lysis, 75 μl of scintillation cocktail was added to each well and the plates were sealed with film tape. The plates were returned to the shake table and vigorously shaken for a minimum of 10 minutes to ensure adequate partitioning of organic and aqueous solutions. The plates were counted in a Wallac Microbeta counter (PerkinElmer) to collect the raw cpm data.
For each experiment, a data stream of cpm values collected from the Wallac Microbeta counter was downloaded to a Microsoft Excel statistical application program. Calculations of EC50 values were made using the transformed-both-sides logistic dose response program written by Wyeth Biometrics Department.

human 5-HT2A receptor = target: T2, human 5-HT2A receptor (Homo sapiens, UniProt P28223); experiment: 5-HT2A FLIPR assay (calcium response to DOI) in CHO cells; format: cell-based; details: for IC50: antagonist inhibition of 3 nM DOI stimulation, CHO cells, FLIPR; for inhibition at 1 µM: CHO, read-out: 5-HT2A Percentage inhibition at 1 μM
T2 construct: expressed in transfected cells; host or cells: CHO
T2 sequence (P28223 whole entry): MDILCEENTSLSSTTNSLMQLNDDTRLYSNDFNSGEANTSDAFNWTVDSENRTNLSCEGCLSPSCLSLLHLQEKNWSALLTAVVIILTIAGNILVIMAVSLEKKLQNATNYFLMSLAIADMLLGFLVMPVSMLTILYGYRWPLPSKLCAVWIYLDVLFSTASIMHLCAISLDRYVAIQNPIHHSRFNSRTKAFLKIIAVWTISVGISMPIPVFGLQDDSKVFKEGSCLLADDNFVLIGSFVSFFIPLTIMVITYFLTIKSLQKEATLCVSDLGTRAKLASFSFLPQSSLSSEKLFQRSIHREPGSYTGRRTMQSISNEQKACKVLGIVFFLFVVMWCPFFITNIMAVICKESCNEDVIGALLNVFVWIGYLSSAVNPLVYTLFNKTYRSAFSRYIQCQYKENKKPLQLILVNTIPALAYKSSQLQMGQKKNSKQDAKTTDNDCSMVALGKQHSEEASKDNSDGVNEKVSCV
Description: Cells are washed with PBS without Ca^2+ and 3 mL Trypsin is added to dissociate cells. After 3 minute incubation, 7 mL Trypsin Neutralizing Solution is added. Cells are then aspirated from flask and mixed in a 50 mL conical tube. 10 μL sample is used to count cells on a hemacytometer. […] Two 96-well drug plates are prepared for each cell plate. Plate 1 will contain compounds to be tested and plate 2 will contain the agonist DOI (3 nM) to activate a calcium response. Specific details of compound preparation are listed below. […] Outside wells are not used due to an edge effect seen in these cells. The reference compounds DOI and 5-HT are used as standard 5HT agonists. […] Standards for plate one are Vehicle, 1 μM DOI, and 3 nM MDL. […] On the day of the assay, test compound solutions of appropriate concentrations are diluted in assay buffer as described for single concentration testing. This procedure is followed to ensure that the solvent concentration is consistent across dilutions. The typical concentration testing range of compounds is 10^−10—10^−5 M in half log or full log increments. A 10 μM DOI stock is diluted to 60 nM and added to the respective wells. The pipeting station of the FLIPR will make an additional 20-fold dilution for a final concentration of 3 nM. Standards for this plate include Vehicle and 3 nM DOI. Contents of dye vial (Molecular Devices #R8090) are dissolved in 100 mL of 1×HBSS supplemented with 20 mM HEPES. Aliquots can be frozen at −20° C. for up to one week for future use. On the day of assay, dye is thawed and diluted to half concentration. […] Cells are allowed to adhere for 24 hours in 96-well plates. […] Cell, compound and DOI plates are loaded into the FLIPR machine. The baseline fluorescence level is read once every second for 1 minute. Compound (10 μL) is transferred from the compound plate to the cells and the fluorescence level recorded every 6 seconds for 2 minutes to determine any agonist activity. Baseline fluorescence is recorded again every second for 10 seconds. For antagonist determination, 10 μL of 3 nM DOI is transferred from the DOI plate to the cells and the fluorescence level recorded every 6 seconds for 5 minutes. The pipetting unit of the FLIPR machine completes all transfers. […] The data are log transformed prior to analysis.

Structure (SMILES)	EC50 (human hNET) [nM]	further results
CNC[C@@H](O)[C@H](c1ccccc1)n1ccc2cc(OC(C)c3ccccc3)ccc21 (mixture of isomers) [Example 17, (1S,2R)-3-(methylamino)-1-phenyl-1-[5-(1RS)-(1-phenylethoxy)-1H-indol-1-yl]propan-2-ol hydrochloride]	873	IC50 (human 5-HT2A receptor): 2640 nM
CNC[C@@H](O)[C@H](c1ccccc1)n1ccc2cc(OCc3ccccc3)ccc21 [Example 1, (1S,2R)-1-[5-(benzyloxy)-1H-indol-1-yl]-3-(methylamino)-1-phenylpropan-2-ol hydrochloride]	18	IC50 (human 5-HT2A receptor): 234 nM
CNC[C@@H](O)[C@H](c1ccccc1)n1ccc2c(OCc3ccccc3)cccc21 [Example 2, (1S,2R)-1-[4-(benzyloxy)-1H-indol-1-yl]-3-(methylamino)-1-phenylpropan-2-ol hydrochloride]	310	inhibition at 1 µM (human 5-HT2A receptor): 29%
CNC[C@@H](O)[C@H](c1ccccc1)n1ccc2ccc(OCc3ccccc3)cc21 [Example 3, (1S,2R)-1-[6-(benzyloxy)-1H-indol-1-yl]-3-(methylamino)-1-phenylpropan-2-ol hydrochloride]	–	inhibition at 1 µM (human hNET): 2%; inhibition at 1 µM (human 5-HT2A receptor): 39%
CNC[C@@H](O)[C@H](c1ccccc1)n1ccc2cccc(OCc3ccccc3)c21 [Example 4, (1S,2R)-1-[7-(benzyloxy)-1H-indol-1-yl]-3-(methylamino)-1-phenylpropan-2-ol hydrochloride]	–	inhibition at 1 µM (human hNET): 20%; IC50 (human 5-HT2A receptor): 1470 nM
CNC[C@@H](O)[C@H](c1ccccc1)n1ccc2cc(OCc3ccccc3OC)ccc21 [Example 5, (1S,2R)-1-{5-[(2-methoxybenzyl)oxy]-1H-indol-1-yl}-3-(methylamino)-1-phenylpropan-2-ol hydrochloride]	196	IC50 (human 5-HT2A receptor): 678 nM
CNC[C@@H](O)[C@H](c1ccccc1)n1ccc2cc(OCc3cccc(OC)c3)ccc21 [Example 6, (1S,2R)-1-{5-[(3-methoxybenzyl)oxy]-1H-indol-1-yl}-3-(methylamino)-1-phenylpropan-2-ol hydrochloride]	17	IC50 (human 5-HT2A receptor): 888 nM
CNC[C@@H](O)[C@H](c1cc(F)cc(Cl)c1)n1ccc2ccccc21 [Example 70, (1S,2R)-1-(3-chloro-5-fluorophenyl)-1-(1H-indol-1-yl)-3-(methylamino)propan-2-ol hydrochloride]	62	–
CNC[C@@H](O)[C@H](c1ccccc1)n1ccc2cc(OCc3ccccn3)ccc21 [Example 92, (1S,2R)-3-(methylamino)-1-phenyl-1-[5-(pyridin-2-ylmethoxy)-1H-indol-1-yl]propan-2-ol hydrochloride]	9	–
CNC[C@@H](O)[C@H](c1cccc(F)c1)N1C(=O)C2(CCCCC2)c2cccc(F)c21 [Example 110, 7′-fluoro-1′-[(1S,2R)-1-(3-fluorophenyl)-2-hydroxy-3-(methylamino)propyl]spiro[cyclohexane-1,3′-indol]-2′(1′H)-one hydrochloride]	6	–
CNC[C@@H](O)[C@H](c1cccc(Cl)c1)N1C(=O)C2(CCCCC2)c2ccc(F)cc21 [Example 111, 1′-[(1S,2R)-1-(3-chlorophenyl)-2-hydroxy-3-(methylamino)propyl]-6′-fluorospiro[cyclohexane-1,3′-indol]-2′(1′H)-one hydrochloride]	186	–
CNC[C@@H](O)[C@H](c1cc(F)cc(Cl)c1)N1C(=O)C(C)(C)c2cccc(F)c21 [Example 112, 1-[(1S,2R)-1-(3-chloro-5-fluorophenyl)-2-hydroxy-3-(methylamino)propyl]-7-fluoro-3,3-dimethyl-1,3-dihydro-2H-indol-2-one hydrochloride]	2	–
CNC[C@@H](O)[C@H](c1cc(F)cc(Cl)c1)N1CCc2ccccc21 [Example 113, (1S,2R)-1-(3-chloro-5-fluorophenyl)-1-(2,3-dihydro-1H-indol-1-yl)-3-(methylamino)propan-2-ol hydrochloride]	33	–
CNC[C@@H](O)[C@H](c1cc(F)cc(Cl)c1)N1CC(C)(C)c2cccc(F)c21 [Example 114, (1S,2R)-1-(3-chloro-5-fluorophenyl)-1-(7-fluoro-3,3-dimethyl-2,3-dihydro-1H-indol-1-yl)-3-(methylamino)propan-2-ol hydrochloride]	166	–
CNC[C@@H](O)[C@H](c1cc(F)cc(Cl)c1)N1CC(C)(C)c2ccccc21 [Example 115, (1S,2R)-1-(3-chloro-5-fluorophenyl)-1-(3,3-dimethyl-2,3-dihydro-1H-indol-1-yl)-3-(methylamino)propan-2-ol hydrochloride]	133	–
CNC[C@@H](O)[C@H](c1cccc(F)c1)N1C(=O)C2(CCC2)c2cccc(F)c21 [Example 116, 7′-fluoro-1′-[(1S,2R)-1-(3-fluorophenyl)-2-hydroxy-3-(methylamino)propyl]spiro[cyclobutane-1,3′-indol]-2′(1′H)-one hydrochloride]	10	–
CNC[C@@H](O)[C@H](c1cccc(F)c1)N1C(=O)C2(CCCC2)c2cccc(F)c21 [Example 117, 7′-fluoro-1′-[(1S,2R)-1-(3-fluorophenyl)-2-hydroxy-3-(methylamino)propyl]spiro[cyclopentane-1,3′-indol]-2′(1′H)-one hydrochloride]	2	–
CNC[C@@H](O)[C@H](c1cccc(F)c1)N1C(=O)C(C)(C)c2ccc(F)cc21 [Example 118, 6-fluoro-1-[(1S,2R)-1-(3-fluorophenyl)-2-hydroxy-3-(methylamino)propyl]-3,3-dimethyl-1,3-dihydro-2H-indol-2-one hydrochloride]	40	–
CNC[C@@H](O)[C@H](c1ccccc1)N1CCc2cccc(F)c21 [Example 119, (1S,2R)-1-(7-Fluoro-2,3-dihydro-1H-indol-1-yl)-3-(methylamino)-1-phenylpropan-2-ol hydrochloride]	39	–
CNC[C@@H](O)[C@H](c1cccc(F)c1)n1c(=O)n(-c2ccccc2)c2cccc(F)c21 [Example 120, 4-fluoro-3-[(1S,2R)-1-(3-fluorophenyl)-2-hydroxy-3-(methylamino)propyl]-1-phenyl-1,3-dihydro-2H-benzimidazol-2-one hydrochloride]	92	–
CNC[C@@H](O)[C@H](c1cccc(F)c1)n1c(=O)n(-c2cccc(F)c2)c2cccc(F)c21 [Example 121, 4-fluoro-1-(3-fluorophenyl)-3-[(1S,2R)-1-(3-fluorophenyl)-2-hydroxy-3-(methylamino)propyl]-1,3-dihydro-2H-benzimidazol-2-one hydrochloride]	189	–
CC1(C)C(=O)N([C@@H](c2cc(F)cc(F)c2)[C@H](O)CN)c2c(F)cccc21 [Example 122, 1-[(1S,2R)-3-amino-1-(3,5-difluorophenyl)-2-hydroxypropyl]-7-fluoro-3,3-dimethyl-1,3-dihydro-2H-indol-2-one]	207	–
